Reference: PubChem BioAssay (NCI)
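Method: 48-hour compound exposure of cells in 96-well plates, five concentrations, linear interpolation of endpoints. GI50 marks 50% less growth. TGI is the concentration that stops growth completely.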

Assays:
Test in all cases: NCI tumour cell line growth inhibition, 48 h
[1] = system: RXF 393 renal
[2] = system: BT-549 breast
[3] = system: NCI-H522 lung
[4] = system: CAKI-1 renal
[5] = system: EKVX NSCLC
[6] = system: SNB-75 CNS
[7] = system: KM12 colon
[8] = system: SF-539 CNS
[9] = system: SK-OV-3 ovarian
[10] = system: SW-620 colon

COc1cc(Cl)cc(-c2nn(C(=O)NCCN3CCN(C)CC3)cc2-c2ccncc2)c1 showed a GI50 [1] of 2.41 µM, a TGI [1] of 18.1 µM and a GI50 [2] of 3.37 µM. The TGI [2] was 18.6 µM, the GI50 [3] was 20.3 µM and the TGI [3] was 53.6 µM. The GI50 [4] was 4.35 µM, the TGI [4] was 25.3 µM and the GI50 [5] was 0.971 µM. The TGI [5] was 37.1 µM, the GI50 [6] was 1.75 µM and the TGI [6] was 9.65 µM. For the same molecule, the GI50 [7] was 20.5 µM, the TGI [7] was 79.6 µM and the GI50 [8] was 2.84 µM. It also gave a TGI [8] of 22.6 µM, a GI50 [9] of 5.44 µM and a TGI [9] of 28.8 µM. The GI50 [10] was 33.1 µM and the TGI [10] was > 100 µM.

For C=C1C(=O)O[C@@H]2C1C[C@@H](O)/C(C)=C/C/C=C(\C)CCC[C@H](C)[C@H]2OC(C)=O (stereo not given in full), the GI50 [1] was 19.3 µM, the TGI [1] was 50.2 µM and the GI50 [2] was 20 µM. It also gave a TGI [2] of 39.1 µM, a GI50 [3] of 22.7 µM and a TGI [3] of 79.9 µM. For the same molecule, the GI50 [4] was 32.8 µM, the TGI [4] was > 100 µM and the GI50 [5] was 23.8 µM. The TGI [5] was 59.1 µM, the GI50 [6] was 38.6 µM and the TGI [6] was > 100 µM. The GI50 [7] was 20.8 µM, the TGI [7] was 41.7 µM and the GI50 [8] was 20.4 µM. The TGI [8] was 39.9 µM, the GI50 [9] was 69.3 µM and the TGI [9] was > 100 µM. It also gave a GI50 [10] of 26 µM and a TGI [10] of 58.9 µM.

With CC1(C)COCN1COC1CCCCC1 the TGI [1] was > 100 µM, the TGI [2] was > 100 µM and the TGI [3] was > 100 µM. The TGI [4] was > 100 µM, the TGI [5] was > 100 µM and the TGI [6] was > 100 µM. For the same molecule, the TGI [7] was > 100 µM, the TGI [8] was > 100 µM and the TGI [9] was > 100 µM. For the same molecule, the TGI [10] was > 100 µM.

For O=C(c1cc(F)c(Cl)cc1Cl)N1N=C(c2ccccc2)CC1(O)c1ccccc1 (stereo not given), the GI50 [1] was 23.6 µM, the TGI [1] was 48.1 µM and the GI50 [2] was 17.7 µM. The TGI [2] was 40.5 µM, the GI50 [3] was 14.5 µM and the TGI [3] was 36.9 µM. The GI50 [4] was 31.7 µM, the TGI [4] was > 100 µM and the GI50 [5] was 19.2 µM. The TGI [5] was 65.5 µM, the GI50 [6] was 20.7 µM and the TGI [6] was 59.6 µM. For the same molecule, the GI50 [7] was 20.1 µM, the TGI [7] was 44.8 µM and the GI50 [8] was 16.5 µM. It also gave a TGI [8] of 30.2 µM, a GI50 [9] of 28.4 µM and a TGI [9] of 80.1 µM. It also gave a GI50 [10] of 18.9 µM and a TGI [10] of 36.9 µM.

CC(=O)Nc1nc(SCc2ccccc2)c2ncn(C(C)=O)c2n1 was tested, and the GI50 [1] was 30.9 µM, the TGI [1] was > 100 µM and the GI50 [2] was 85.3 µM. The TGI [2] was > 100 µM, the GI50 [3] was 72.6 µM and the TGI [3] was > 100 µM. The GI50 [4] was 28 µM, the TGI [4] was > 100 µM and the GI50 [5] was 71.6 µM. The TGI [5] was > 100 µM, the GI50 [6] was 44.7 µM and the TGI [6] was > 100 µM. The GI50 [7] was > 100 µM, the TGI [7] was > 100 µM and the GI50 [8] was 97.7 µM. The TGI [8] was > 100 µM, the GI50 [9] was 55.9 µM and the TGI [9] was > 100 µM. The GI50 [10] was > 100 µM and the TGI [10] was > 100 µM.

For CC(C)(C)C(=O)Nc1ccccc1I(=O)=O, the GI50 [1] was > 100 µM, the TGI [1] was > 100 µM and the GI50 [2] was > 100 µM. The TGI [2] was > 100 µM, the GI50 [3] was > 100 µM and the TGI [3] was > 100 µM. For the same molecule, the GI50 [4] was > 100 µM, the TGI [4] was > 100 µM and the GI50 [5] was > 100 µM. For the same molecule, the TGI [5] was > 100 µM, the GI50 [6] was > 100 µM and the TGI [6] was > 100 µM. The GI50 [7] was > 100 µM, the TGI [7] was > 100 µM and the GI50 [8] was > 100 µM. For the same molecule, the TGI [8] was > 100 µM, the GI50 [9] was > 100 µM and the TGI [9] was > 100 µM. The GI50 [10] was > 100 µM and the TGI [10] was > 100 µM.
